Measured values as given in PubChem BioAssay (NCI).
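Step 1: Grow cells in 96-well plates. Step 2: Expose to compound for 48 hours at 5 concentrations. Step 3: Interpolate endpoints linearly; if unreached, use highest concentration. TGI marks complete inhibition of growth.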

Tests used:
Assay in all cases: DTP human tumour cell line panel, 48 h
RPMI-8226 leukemia = test system: RPMI-8226 leukemia
TK-10 renal = test system: TK-10 renal
UACC-62 melanoma = test system: UACC-62 melanoma
PC-3 prostate = test system: PC-3 prostate
UO-31 renal = test system: UO-31 renal
HS 578T breast = test system: HS 578T breast
HCC-2998 colon = test system: HCC-2998 colon
NCI/ADR-RES ovarian = test system: NCI/ADR-RES ovarian
EKVX NSCLC = test system: EKVX NSCLC
SNB-75 CNS = test system: SNB-75 CNS
IGROV1 ovarian = test system: IGROV1 ovarian
NCI-H23 lung = test system: NCI-H23 lung
HOP-62 NSCLC = test system: HOP-62 NSCLC
SR leukemia = test system: SR leukemia
MDA-MB-231 breast = test system: MDA-MB-231 breast
SK-MEL-5 melanoma = test system: SK-MEL-5 melanoma
COLO 205 colon = test system: COLO 205 colon
M14 melanoma = test system: M14 melanoma
SK-OV-3 ovarian = test system: SK-OV-3 ovarian
HT29 colon = test system: HT29 colon
OVCAR-3 ovarian = test system: OVCAR-3 ovarian
CAKI-1 renal = test system: CAKI-1 renal
NCI-H460 lung = test system: NCI-H460 lung
MDA-N = test system: MDA-N
OVCAR-4 ovarian = test system: OVCAR-4 ovarian
SF-295 CNS = test system: SF-295 CNS
T-47D breast = test system: T-47D breast
RXF 393 renal = test system: RXF 393 renal
OVCAR-8 ovarian = test system: OVCAR-8 ovarian
SK-MEL-2 melanoma = test system: SK-MEL-2 melanoma
BT-549 breast = test system: BT-549 breast
SF-539 CNS = test system: SF-539 CNS
KM12 colon = test system: KM12 colon
MCF7 breast = test system: MCF7 breast
SW-620 colon = test system: SW-620 colon
SNB-19 CNS = test system: SNB-19 CNS
UACC-257 melanoma = test system: UACC-257 melanoma
HCT-15 colon = test system: HCT-15 colon
A498 renal = test system: A498 renal
MALME-3M melanoma = test system: MALME-3M melanoma
MDA-MB-435 = test system: MDA-MB-435
HOP-92 NSCLC = test system: HOP-92 NSCLC
SF-268 CNS = test system: SF-268 CNS
786-0 renal = test system: 786-0 renal
ACHN renal = test system: ACHN renal
U251 CNS = test system: U251 CNS
A549 NSCLC = test system: A549 NSCLC
SN12C renal = test system: SN12C renal
OVCAR-5 ovarian = test system: OVCAR-5 ovarian
MOLT-4 leukemia = test system: MOLT-4 leukemia
HCT-116 colon = test system: HCT-116 colon
SK-MEL-28 melanoma = test system: SK-MEL-28 melanoma
NCI-H226 lung = test system: NCI-H226 lung
K-562 leukemia = test system: K-562 leukemia
HL-60(TB) leukemia = test system: HL-60(TB) leukemia
CCRF-CEM leukemia = test system: CCRF-CEM leukemia
NCI-H522 lung = test system: NCI-H522 lung
DU-145 prostate = test system: DU-145 prostate
LOX IMVI melanoma = test system: LOX IMVI melanoma

For `C=C(C)C1Cc2c(cc3c(c2O)c(=O)c2ccccc2n3C)O1` (stereo not given), the TGI (RPMI-8226 leukemia) was 9.72 µM, the TGI (TK-10 renal) was 27 µM and the TGI (UACC-62 melanoma) was 7.57 µM. The TGI (PC-3 prostate) was 19.3 µM, the TGI (UO-31 renal) was 4.01 µM and the TGI (HS 578T breast) was 28.7 µM. The TGI (HCC-2998 colon) was 28.3 µM, the TGI (NCI/ADR-RES ovarian) was 8.19 µM and the TGI (EKVX NSCLC) was 35.3 µM. The TGI (SNB-75 CNS) was 17 µM, the TGI (IGROV1 ovarian) was 4.16 µM and the TGI (NCI-H23 lung) was 5.34 µM. For the same compound, the TGI (HOP-62 NSCLC) was 25.2 µM, the TGI (SR leukemia) was 4.95 µM and the TGI (MDA-MB-231 breast) was 6.72 µM. The TGI (SK-MEL-5 melanoma) was 8.02 µM, the TGI (COLO 205 colon) was 12.3 µM and the TGI (M14 melanoma) was 10.6 µM. For the same compound, the TGI (SK-OV-3 ovarian) was 13.5 µM, the TGI (HT29 colon) was 7.32 µM and the TGI (OVCAR-3 ovarian) was 27.9 µM. It also gave a TGI (CAKI-1 renal) of 11.2 µM, a TGI (NCI-H460 lung) of 19 µM and a TGI (MDA-N) of 12.2 µM. The TGI (OVCAR-4 ovarian) was 22.3 µM, the TGI (SF-295 CNS) was 18.2 µM and the TGI (T-47D breast) was 21 µM. It also gave a TGI (RXF 393 renal) of 8.52 µM, a TGI (OVCAR-8 ovarian) of 5.67 µM and a TGI (SK-MEL-2 melanoma) of 26.7 µM. The TGI (BT-549 breast) was 3.28 µM, the TGI (SF-539 CNS) was 5.99 µM and the TGI (KM12 colon) was 5.75 µM. The TGI (MCF7 breast) was 17 µM, the TGI (SW-620 colon) was 5.68 µM and the TGI (SNB-19 CNS) was 12 µM. The TGI (UACC-257 melanoma) was 30.7 µM, the TGI (HCT-15 colon) was 9.93 µM and the TGI (A498 renal) was 22.1 µM. For the same compound, the TGI (MALME-3M melanoma) was 3.41 µM, the TGI (MDA-MB-435) was 20.7 µM and the TGI (HOP-92 NSCLC) was 21.3 µM. For the same compound, the TGI (SF-268 CNS) was 14.2 µM, the TGI (786-0 renal) was 2.91 µM and the TGI (ACHN renal) was 35.7 µM. The TGI (U251 CNS) was 12.7 µM, the TGI (A549 NSCLC) was 24.9 µM and the TGI (SN12C renal) was 7.52 µM. It also gave a TGI (OVCAR-5 ovarian) of 26.1 µM, a TGI (MOLT-4 leukemia) of 1.99 µM and a TGI (HCT-116 colon) of 4.94 µM. The TGI (SK-MEL-28 melanoma) was 24.9 µM and the TGI (NCI-H226 lung) was 6.77 µM.
`OC(Cc1cnnc2ccccc12)C(Cl)(Cl)Cl` (stereo not given) was tested, and the TGI (RPMI-8226 leukemia) was greater than 10 µM, the TGI (TK-10 renal) was greater than 10 µM and the TGI (UACC-62 melanoma) was greater than 10 µM. The TGI (PC-3 prostate) was greater than 10 µM, the TGI (UO-31 renal) was greater than 10 µM and the TGI (HS 578T breast) was greater than 10 µM. The TGI (HCC-2998 colon) was greater than 10 µM, the TGI (K-562 leukemia) was greater than 10 µM and the TGI (HL-60(TB) leukemia) was greater than 10 µM. It also gave a TGI (NCI/ADR-RES ovarian) greater than 10 µM, a TGI (EKVX NSCLC) greater than 10 µM and a TGI (SNB-75 CNS) greater than 10 µM. For the same compound, the TGI (IGROV1 ovarian) was greater than 10 µM, the TGI (NCI-H23 lung) was greater than 10 µM and the TGI (HOP-62 NSCLC) was greater than 10 µM. For the same compound, the TGI (SR leukemia) was greater than 10 µM, the TGI (MDA-MB-231 breast) was greater than 10 µM and the TGI (SK-MEL-5 melanoma) was greater than 10 µM. It also gave a TGI (COLO 205 colon) greater than 10 µM, a TGI (M14 melanoma) greater than 10 µM and a TGI (CCRF-CEM leukemia) greater than 10 µM. It also gave a TGI (SK-OV-3 ovarian) greater than 10 µM, a TGI (HT29 colon) greater than 10 µM and a TGI (OVCAR-3 ovarian) greater than 10 µM. The TGI (CAKI-1 renal) was greater than 10 µM, the TGI (NCI-H460 lung) was greater than 10 µM and the TGI (MDA-N) was greater than 10 µM. The TGI (OVCAR-4 ovarian) was greater than 10 µM, the TGI (SF-295 CNS) was greater than 10 µM and the TGI (T-47D breast) was greater than 10 µM. For the same compound, the TGI (RXF 393 renal) was greater than 10 µM, the TGI (OVCAR-8 ovarian) was greater than 10 µM and the TGI (SK-MEL-2 melanoma) was greater than 10 µM. For the same compound, the TGI (NCI-H522 lung) was greater than 10 µM, the TGI (SF-539 CNS) was greater than 10 µM and the TGI (KM12 colon) was greater than 10 µM. It also gave a TGI (MCF7 breast) greater than 10 µM, a TGI (SW-620 colon) greater than 10 µM and a TGI (SNB-19 CNS) greater than 10 µM. The TGI (UACC-257 melanoma) was greater than 10 µM, the TGI (DU-145 prostate) was greater than 10 µM and the TGI (HCT-15 colon) was greater than 10 µM. For the same compound, the TGI (LOX IMVI melanoma) was greater than 10 µM, the TGI (A498 renal) was greater than 10 µM and the TGI (MALME-3M melanoma) was greater than 10 µM. The TGI (MDA-MB-435) was greater than 10 µM, the TGI (HOP-92 NSCLC) was greater than 10 µM and the TGI (SF-268 CNS) was greater than 10 µM. For the same compound, the TGI (786-0 renal) was greater than 10 µM, the TGI (ACHN renal) was greater than 10 µM and the TGI (U251 CNS) was greater than 10 µM. The TGI (A549 NSCLC) was greater than 10 µM, the TGI (SN12C renal) was greater than 10 µM and the TGI (MOLT-4 leukemia) was greater than 10 µM. For the same compound, the TGI (HCT-116 colon) was greater than 10 µM, the TGI (SK-MEL-28 melanoma) was greater than 10 µM and the TGI (NCI-H226 lung) was greater than 10 µM.
